This note sets out measurements from patent US12180084B2, “Cerium (III) carbonate formulations” (THE REGENTS OF THE UNIVERSITY OF CALIFORNIA, priority 2019, dated 2024).

The data set can be described thus: MB dye photodegradation in ZnO-based sunscreen film (Neutrogena Sheer Zinc Face Mineral Sunscreen SPF 50). The method, then:
A commercial ZnO-based sunscreen (Neutrogena Sheer Zinc Face™ Mineral Sunscreen SPF 50 consisting of 21.6% of ZnO solid as the only listed active ingredient) was mixed with Methylene Blue (MB) organic dye as follows. In a plastic cup, (10 g capacity; obtained from Flacktek Inc. USA), sunscreen (3 g; Neutrogena Sheer Zinc Face™ Mineral Sunscreen SPF 50) and an aqueous solution of 10^−3 M MB dye (0.6 mL) was mixed with a spatula for 3 minutes. Immediately afterwards, the mixture was high sheared in a Flactek high-speed mixer at 3500 rpm for 3 min. […] These wet drawn down coupons were treated with UV radiation in a photoreactor, without drying, for varying times and were subsequently directly extracted. The extraction employed ethanol solvent to remove MB dye and permit its quantification prior/post UV radiation exposure, so as to determine the extent of MB dye degradation by subtraction. Specifically, to accomplish this, two small strips (100 mg of each) were cut from the wet drawn-down coupons with a scissor/sharp blade so as to not smudge the film of applied sunscreen, and these strips were subsequently exposed to UV radiation in a photoreactor. The photoreactor was equipped with 14 UV-lamps of 254 nm wavelength and delivering a power of 145-155 lux for 4 h. The relative humidity during UV-exposure was controlled to be 100% by placing a water-filled Petri dish (200 mL capacity) in the photoreactor chamber for at least 16 h prior to start of photocatalysis experiment. […] This resulting clear ethanol solution of MB dye was used for measurement of the MB dye concentration UV-visible spectrophotometry, using the absorbance maximum at 654 nm. A control experiment was similarly performed to quantify amount of MB dye from sunscreen films which never underwent UV-radiation exposure (t=0 time point). […] The extent of dye photodegradation was determined by calculating the percentage of decrease in the absorbance intensity of dye at the wavelength of maximum absorption. […]

The structures appear in SMILES notation.

Regarding `O.O.O.O.O.O.O=C([O-])[O-].O=C([O-])[O-].O=C([O-])[O-].[Ce+3].[Ce+3]` [Ce2(CO3)3·6H2O], the “% of MB dye photodegradation after 4 h of UV irradiation in photoreactor” value runs as follows: (0.5 wt. % added agent relative to sunscreen weight) 36%±2; (0.5 wt. % added agent relative to sunscreen weight, listed as Ce2(CO3)3•6H2O synthesized according to Example 3) 36 ± 2%; (1.5 wt. % added agent relative to sunscreen weight) 25%±2.
